Where no end group is shown, it is not given here.
Assays:
ASyn preformed fibrils = target: T1, ASyn preformed fibrils (Homo sapiens, UniProt P37840); assay: Thioflavin-T (ThT) assay; assay type: biochemical; conditions: 20 μM ASyn preformed fibrils + 20 μM peptide in PBS, 70 μM ThT; for reduction in ThT fluorescence intensity: excitation 440 nm, over the course of 46 h
T1 construct: purchased StressMarq
Protocol: Thioflavin T assay was conducted to assess the effect of five peptides (PYYYWKELAQM; PYYYWKDPNGS; EQALMPEGMGLEDPNGS; ELAQMPYYYWKDPNGS; ELAQMPWIWYWKDPNGS) on ASyn preformed fibrils (StressMarq). […] [75]. The samples were prepared by incubating 20 μM of ASyn diluted in PBS buffer with 20 μM of each peptide. To each sample, 70 μM ThT dye diluted in deionized water was added. The prepared solutions were then transferred into quartz cuvettes, and the emission spectra at different time intervals were recorded. Samples were excited at 440 nm, and emission spectra were recorded between 460 nm to 550 nm at a slit of 3 nm.

[1] = DPPH radical scavenging antioxidant assay; assay type: biochemical; conditions: colorimetric DPPH kit; at the highest concentrations (2, 10, 20, 40 µM tested)
Protocol: To investigate the antioxidant activity of the five peptides (PYYYWKELAQM; PYYYWKDPNGS; EQALMPEGMGLEDPNGS; ELAQMPYYYWKDPNGS; ELAQMPWIWYWKDPNGS), we conducted a colorimetric DPPH (2,2-diphenyl-1-picrylhydrazyl) radical scavenging assay using an antioxidant assay kit (AbCam, USA). In general, the protocol from the assay kit was followed to determine the antioxidant activity. Four different concentrations of each of the peptides were utilized (2 µM, 10 µM, 20 µM, and 40 µM). A standard curve was generated using Trolox, and then the activities of each of the peptides were compared by calculating the inhibition ratio.

Sequence | reduction in ThT fluorescence intensity (ASyn preformed fibrils) | reduction in ThT fluorescence intensity at 48 h (ASyn preformed fibrils; at 48 h) | DPPH radical scavenging activity in comparison to Trolox (standard) [1]
ELAQMGPEGPMGLEDPNGS [ELAQMGPEGPMGLEDPNGS] | 32% |  | 
EQALMPWIWYWKDPNGS [EQALMPWIWYWKDPNGS] |  | 42% | 19%
ELAQMPYYYWKDPNGS [ELAQMPYYYWKDPNGS] | 27% |  | 
PYYYWKDPNGS [PYYYWKDPNGS] | 46.2% |  | 
